Test results: US5817674A, “Quinoline compounds” (Roussel Uclaf, priority 1991, dated 1998)

Columns and labels:
angiotensin II receptor = target: T1, angiotensin II receptor (Rattus norvegicus, UniProt P25095); assay: Test on the angiotensin II receptor (rat liver membranes, 125I angiotensin II); format: binding; settings: pH 7.4, 25° C., 150 minutes, read-out: IC50 (displacement of 50% of the specific radioactivity fixed on the receptor)
T1 construct: A fresh membrane preparation obtained from the liver of a rat was used; from tissue; host or cells: rat liver membranes
T1 sequence (P25095 1-359): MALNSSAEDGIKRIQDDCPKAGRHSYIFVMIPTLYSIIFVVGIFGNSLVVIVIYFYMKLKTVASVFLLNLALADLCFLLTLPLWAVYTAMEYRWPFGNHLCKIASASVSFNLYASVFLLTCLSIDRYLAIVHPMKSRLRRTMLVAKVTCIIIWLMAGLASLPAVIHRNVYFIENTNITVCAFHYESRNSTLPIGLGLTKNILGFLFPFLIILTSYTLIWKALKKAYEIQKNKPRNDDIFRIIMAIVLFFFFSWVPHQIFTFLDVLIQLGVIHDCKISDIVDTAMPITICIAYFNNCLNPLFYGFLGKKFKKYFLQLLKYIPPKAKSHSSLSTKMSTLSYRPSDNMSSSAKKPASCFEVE
Protocol: 1) Test on the angiotensin II receptor
A fresh membrane preparation obtained from the liver of a rat was used. The tissue was ground up in a polytron in a Tris 50 mM pH 7.4 buffer and after being ground up, the tissue was centrifuged 3 times at 30,000 g for 15 mintues with intermediate taking up of the deposits in the Tris pH 7.4 buffer. The last deposits were suspended in a pH 7.4 incubation buffer (Tris 20 mM, NaCl 135 mM, KCl 10 mM, glucose 5 mM, MgCl2 10 mM, benzyl sulfonyl fluoride 0.3 mM, bacitracin 0.1 mM, (0.2% bovine albumin serum). 2 ml aliquoted fractions were divided into hemolysis tubes and 125I angiotensin II (25,000 DPM/tube) and the product to be studied were added. The product was first tested at 3×10^-5 M in triplicate. When the test product displaced more than 50% of the radioactivity linked specifically to the receptor, it was tested again in a range of 7 concentrations to determine the concentration that inhibited the radioactivity linked specifically to the receptor by 50%. In this way, the 50% inhibiting concentration was determined.
The non-specific bond was determined by the addition of the product of Example 94 of the European Patent No. 0,253,310 at 10^-5 M (in triplicate). […]

[1] = system: angiotensin II on the isolated portal vein; assay: antagonistic activity of angiotensin II on the isolated portal vein; design: species or system male Wistar rats; settings: rat isolated portal vein; angiotensin II 3.10^-8 M; compound 15 minutes before stimulation; 37° C.; verapamil 1.10^-6 M; read-out: IC50 (concentration that produced a 50% inhibition of the response to angiotensin)
Protocol: The portal vein was removed from male Wistar rats weighing about 350 g (IFFA Credo France) after cervical dislocation. It was put rapidly into a physiological solution (see below) at ambient temperature and a ring of about 1 mm was mounted in a bath with an isolated element containing 20 ml of the following physiological solution (composition in mM: NaCl 118.3-KCl 4.7-MgSO4 1.2-KH2 PO4 1.2-NaHCO3 25-glucose 11.1-CaCl2 2.5). The medium was held at 37° C. and oxygenated by a mixture of O2 95%, CO2 5%. The initial pressure imposed was 1 g and the rings were left at rest for 60 to 90 minutes. To avoid spontaneous contractions, verapamil was added to the incubation bath (1.10^-6 M).
At the end of rest period, angiotensin II (Ciba hypertensin) 3.10^-8 M was added to the incubation bath and left in contact with the preparation for one minute. This operation was repeated every 30 minutes with the tissue being washed 3 or 4 times between two stimulations with angiotensin. The compound to be studied was introduced into the bath 15 minutes before a new stimulation with angiotensin. As increasing concentrations of this molecule were used, an IC50 (concentration that produced a 50% inhibition of the response to angiotensin) was calculated, expressed in nanomoles.

[2] = system: vasoconstrictive effect of endotheline; assay: antagonistic activity of the vasoconstrictive effect of endotheline in a demedullated rat; format: in vivo; settings: 1 mg/kg (IV), 10 minutes before endotheline 1-3-10-30 μg/kg IV; anaesthetized demedullated Sprague Dawley rats
Protocol: 4) Investigation of an antagonistic activity of the vasoconstrictive effect of endotheline in a demedullated rat
The vasoconstriction caused by injections (IV) of cumulative doses of endotheline (1-3-10-30 μg/kg) was measured by the increase of average arterial pressure in a control group of rats (Sprague Dawley), anaesthetized, then demedullated.

endotheline receptor = target: T2, endotheline receptor (Rattus norvegicus, UniProt P21451); assay: activity on the endotheline receptor (rat posterior cortex plus cerebellum membranes, 125I Endotheline); format: binding; settings: pH 7.4, 25° C., 60 minutes, read-out: IC50 (displacement by 50% of the specific radioactivity fixed to the receptor)
T2 construct: prepared from rat's posteror cortex plus cerebellum; from tissue; host or cells: rat posterior cortex plus cerebellum membranes
T2 sequence (P21451 27-442): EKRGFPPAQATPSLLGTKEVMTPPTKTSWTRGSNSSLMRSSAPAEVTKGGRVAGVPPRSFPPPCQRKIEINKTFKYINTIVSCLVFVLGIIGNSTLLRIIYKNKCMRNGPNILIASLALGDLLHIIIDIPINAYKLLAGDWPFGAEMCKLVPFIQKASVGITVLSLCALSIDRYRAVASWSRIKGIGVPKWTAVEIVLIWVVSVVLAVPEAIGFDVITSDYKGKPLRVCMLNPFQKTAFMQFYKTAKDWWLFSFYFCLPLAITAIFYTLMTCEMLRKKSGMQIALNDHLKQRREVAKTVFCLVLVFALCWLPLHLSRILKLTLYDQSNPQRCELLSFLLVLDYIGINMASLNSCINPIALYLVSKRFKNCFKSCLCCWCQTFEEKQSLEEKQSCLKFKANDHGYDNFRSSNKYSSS
Protocol: 3) Study of the activity on the endotheline receptor
A membrane preparaton was prepared from rat's posteror cortex plus cerebellum. The tissue was ground up in a POLYTRON in a Tris buffer 50 mM pH=7.4. After 30 minutes at 25° C. (W.B.), the homogenate was centrifuged at 30,000 g for 15 minutes (2 centrifugings with intermediate taking up in the Tris buffer pH 7.4). The deposits were suspended in an incubation buffer (Tris 25 mM, pepsteatine 5 microg/ml, aprotinine 3 microg/ml. PMSF 0.1 mM, EDTA 3 mM, EGTA 1 mM pH 7.4). 2 ml aliquots were distributed in hemolysis tubes and 125I Endotheline (about 50,000 dpm/tube) and the product to be studied were added. The product was first tested at 3×10^-5 M in triplicate. When the tested product displaced by more than 50% the radioactivity linked specifically to the receptor, it was tested again in a range of 7 concentrations to determine the concentration that inhibited the radioactivity linked specifically to the receptor by 50%. In this way, the 50% inhibiting concentration was determined.
The non-specific bond was determined by the addition of endotheline at 10^-6 M (in triplicate). The aliquot was incubated at 25° C. for 60 minutes, put in a water bath at 0° C. for 5 minutes, filtered under reduced pressure, rinsed with Tris buffer 7.4 pH and the radioactivity was counted in the presence of scintillating Triton. […]

| IC50 (angiotensin II receptor) [nM] | IC50 [1] [nM] | IC50 (endotheline receptor) [nM] | Structure (SMILES) | antagonistic effect: decrease in response to endotheline (average arterial pressure) [2] |
| --- | --- | --- | --- | --- |
| 540 | 131 |  | CCCCc1cc(Cc2ccc(-c3ccccc3C(=O)O)cc2)c2ccccc2n1 [Example 4, 4'-[(2-butyl-4-quinolinyl)-methyl](1,1'-biphenyl)-2-carboxylic acid] |  |
|  |  | 14000 | CC(C)Cc1cc(OCc2ccc(-c3ccccc3C(=O)O)cc2)c2cccc(C(F)(F)F)c2n1 [Example 35, 4'-(((2-(2-methylproyl)-8-(trifluoromethyl)-4-quinolinyl)-oxy)-methyl)(1,1'-biphenyl)-2-carboxylic acid] | antagonistic effect |
